7 compounds from patent publication US12527329B2, “Compositions and methods relating to insecticides” (priority 2019, dated 2026) can be followed below.

Read-outs that look alike come from different tables or passages of the source.

One data set relates to Aedes aegypti mosquitoes. The format is in vivo. The protocol:
This plant essential oil has been screened in combination with natural pyrethrins to assess the ability of this oil and these compositions to increase mortality and knockdown at 24-hr and 1-hr, respectively. […] As described herein, all compounds were dissolved and applied topically in ethanol or acetone.
An example of such synergism can be seen in FIG. 4. FIG. 4 is a graph showing synergism of insecticide (natural pyrethrins, NPs), piperonyl butoxide (PBO), and the combination thereof on mortality (24 hour) of Aedes aegypti mosquitoes. Mosquitoes were treated topically with 0.2 μL of different concentrations of insecticide+1% or 5% (w/v) piperonyl butoxide (PBO) in acetone. Mortality was recorded 24 hr after treatment.
Another example of such synergism is shown in FIG. 5, which is a graph showing antagonism of (natural pyrethrins, NPs), PBO, and the combination on knockdown (1 hour) of Aedes aegypti mosquitoes. Mosquitoes were treated with 0.2 μL different concentrations of insecticide+1% or 5% (w/v) PBO oil in acetone. Mortality was recorded 24 hr after exposure. FIG. 6 is an annotated version of FIG. 5 with arrows denoting statistically significant reduction in knockdown effect.
FIG. 7 is a graph showing synergism of (natural pyrethrins, NPs), fir needle oil, and the combination thereof on knockdown (1 hour) and mortality (24 hour) of Aedes aegypti mosquitoes. Mosquitoes were treated with 0.2 μL of different concentrations of insecticide+1% or 5% (w/v) fir needle oil in acetone. Mortality was recorded 24 hr after exposure.
(§1) Aedes aegypti mosquitoes (susceptible Orlando strain and pyrethroid resistant Puerto Rico strain) were reared using standard protocols and provided by the United States Department of Agriculture—Center of Medical, Agricultural, and Veterinary Entomology (Gainesville, FL). Adult mosquitoes were anesthetized on ice, and the females treated with 0.2 μL of ethanolic solution using a repeating micro-applicator (Hamilton Co., Reno, NV). Ten females were used per concentration and taken from at least three different emerged cohorts. Knockdown (defined as inability to fly or orient in the upright direction) was recorded at 1 hr or other time points post application (depending on the experiment), whereas mortality (defined as no movement—ataxia) was recorded at 24 hr. […] Synergism studies were performed using the maximal sublethal dose of the fir needle oil in combination with varying concentrations of insecticide to calculate the LD50 value of the insecticide in combination with the natural synergist. SAS 9.4 software was used to calculate the LD50 values using a PROC PROBIT model with Abbott's correction to account for any control mortality. Synergist ratios were calculated as: KD50 or LD50 of compound alone÷KD50 or LD50 of compound+Fir needle oil.

In data set [1] the test system is pyrethroid-susceptible strain of Aedes aegypti (Orlando). The format is in vivo. The note with it: topical; for KD50: 1-hr; for LD50: 24-hr. The protocol:
as §1

Data set [2] relates to pyrethroid-resistant Aedes aegypti strain (Puerto Rico). Briefly: Topical application on the pyrethroid-resistant Puerto Rico strain: 24-hr LD50 and 1-hr KD50. In kind it is in vivo. Set-up: unit not given beside the values. The note with it: alone or with FNO 5%. The protocol: as §1
In data set [3] the test system is ethoxycoumarin de-ethylase (cytochrome P450 mono-oxygenase). Briefly: Ethoxycoumarin de-ethylase activity assay on homogenates of topically treated mosquitoes. The format is biochemical, Aedes aegypti. The note with it: 0.2 μL of 5% (w/v) topically, 4 hr before homogenization; ANOVA with Tukey's posttest, P<0.05 (FIG. 9). The protocol: Ethoxycoumarin de-ethylase activity was measured according the methods of Anderson and Zhu (2004) with minor modifications. In short, mosquitoes were treated with 0.2 μL of fir needle oil or delta-carene 5% w/v solution in ethanol and incubated for 4 hr prior to sacrificing treated insects. Approximately 100 insects were homogenized in 0.1 PBS solution, and homogenates centrifuged at 10,000×g for 20 minutes at 4° C. The resulting supernatant containing microsomes was then used as the enzyme preparation for the remainder of the assay. In each well, 20 μL of enzyme preparation was added to a final volume of 100 μL 0.1 PBS containing 250 μM reduced β-NADPH and 2 mM ethoxycoumarin. After adding the enzyme solution to the wells, plates were incubated at room temperature for 3 hr. After 3 hr incubation, 10 μL of 3.2 mM of oxidized glutathione was added to each well and 1 U of yeast glutathione reductase was added to each well. […] Fluorescence values were then read at 390/465 nm excitation/[…].

Where [4] appears, read: 1-hr knockdown, topical, insecticide with or without 1% fir needle oil, ng dose per mg insect body weight.

Take `CC1(C)C(C=C(Cl)Cl)C1C(=O)OCc1cccc(Oc2ccccc2)c1` (racemic) [Permethrin, 3-phenoxybenzyl (1RS)-cis,trans-3-(2,2-dichlorovinyl)-2,2-dimethylcyclopropanecarboxylate]: the KD50 (with Aedes aegypti mosquitoes (in vivo); in data set [1] (alone or with FNO 5%)) was 0.06 ng/mg throughout. For the same compound, the LD50 (in the data set with Aedes aegypti mosquitoes (in vivo); in data set [1] (alone or with FNO 5%)) was 0.09 ng/mg in each case.

Take `CNC(=N[N+](=O)[O-])NCc1cnc(Cl)s1` [Clothianidin, 1-(2-Chloro-1,3-thiazol-5-ylmethyl)-3-methyl-2-nitroguanidine]: the KD50 was 9.15 in data set [2]; 22 ng/mg in the data set on Aedes aegypti mosquitoes (setting [4]); 22 ng/mg in data set [1] (alone or with FNO 5%); 22 in data set [1] (clothianidin alone or with 5% w/v FNO, delta-3-carene or bornyl acetate (Table 3)). Also, the LD50 in the data set with Aedes aegypti mosquitoes (24-hr lethal dose, topical, insecticide with or without 1% fir needle oil, ng dose per mg insect body weight) was found to be 4.5 ng/mg; in data set [1] (alone or with FNO 5%), 4.5 ng/mg.

Turning to `CC1(C)[C@H](C(=O)O[C@H](C#N)c2cccc(Oc3ccccc3)c2)[C@@H]1C=C(Br)Br` [Deltamethrin, (S)-α-cyano-3-phenoxybenzyl (1R)-cis-3-(2,2-dibromovinyl)-2,2-dimethylcyclopropanecarboxylate], the KD50 in the data set with Aedes aegypti mosquitoes (setting [4]) is listed as 0.003 ng/mg.

With `CN1COCN(Cc2cnc(Cl)s2)C1=N[N+](=O)[O-]` [Thiamethoxam, 3-((2-chloro-5-thiazolyl)methyl)-5-methyl-4-nitroiminotetrahydro-1,3,5-oxadiazine], in data set [1] (alone or with FNO 5%), the KD50 is 17.2 ng/mg and the LD50 was 3.4 ng/mg.

For the compound `CC1=CCC2C(C1)C2(C)C` (stereo not shown) [delta-carene, delta-3-carene], in data set [3], the “ethoxycoumarin de-ethylase (cytochrome P450 mono-oxygenase) activity versus vehicle-treated mosquitoes” value is “not increasing P450 activity”.

In the case of `O=[N+]([O-])N=C1NCCN1Cc1ccc(Cl)nc1` [Imidacloprid, 1-(6-chloro-3-pyridylmethyl)-N-nitroimidazolidin-2-ylideneamine], the KD50 in data set [2] is 10.7; in data set [1] (alone or with FNO 5%) it was 3.7 ng/mg. The LD50 in data set [1] (alone or with FNO 5%) is 1.1 ng/mg.

For the compound `N#Cc1nn(-c2c(Cl)cc(C(F)(F)F)cc2Cl)c(N)c1[S+]([O-])C(F)(F)F` (stereo not shown) [Fipronil], in data set [1] (alone or with FNO 5%), the KD50 is listed as 10.7 ng/mg and the LD50 is 0.1 ng/mg.
